Laboratory results: patent US11478011B2, “Nutritional compositions and infant formula for promoting de novo myealination” (NESTEC S.A., priority 2015, dated 2022)

How the values were obtained:
[1] = tested on: brain myelination (myelin water fraction) of children up to 5 years of age; test: Correlation analysis between infant formula nutrient composition and brain myelination (mcDESPOT MRI myelin water fraction); type: in vivo, human; settings: formula-fed children up to 5 years; brain regions listed in the block; FIG. 1b-1p
Method: MRI (Magnetic Resonance Imaging): MRI brain scans of infants and children between 0 and 5 years were acquired using a white matter imaging technique. This technique provides a quantitative measure, the Myelin Water Fraction (MWF), which is a surrogate marker of myelin content in the brain. When mapped as a function of time across early childhood, myelination trajectories can be generated.
Infant formula composition: six infant formulas fed to infants participating in a study were analyzed for their composition/level of myelin-relevant nutrients.
Infants included in this study were drawn from a larger longitudinal study of normal brain and behavioral development: the Brown University Assessment of Myelination and Behavior Across Maturation (BAMBAM). To focus on neurotypical development, children with known potential risk factors for learning, neurologic, or psychiatric disorders were specifically excluded during recruitment and enrollment. Thus, children with in utero alcohol or illicit substance exposure, premature (<37 weeks gestation) or multiple birth, fetal ultrasound abnormalities, complicated pregnancy (e.g., preeclampsia), APGAR scores <8, NICU admission, neurological disorder (e.g., head injury, epilepsy), psychiatric or developmental disorders in the infant, parents or siblings (including maternal depression requiring medication) were excluded. Ongoing screenings, such as the MCAT for autism, or CBCL for behavioral problems, were further used to remove enrolled children with clinically concerning behaviors or overt medical conditions (such as autism spectrum disorders).
A combination of retrospective and prospective data were acquired from parents via detailed medical histories and parental interview on the type of infant formula used, percentage of breastfeeding to formula feeding, and length of exclusive breastfeeding. This information was updated at each study visit, which occurred approximately every 6 months for children under 2 years, and yearly for older children. Using this information, children were categorized into one of 2 groups: #1. Exclusively formula-fed; and #2. Exclusively breastfed for at least 90 days (3 months). Children who were fed a combination of breastmilk and formula within 3 months were excluded from our analysis. Infants within the exclusively formula-fed group were further sub-divided based on parental reports of the main infant formula used throughout the first 3 months. Main formula was defined as that given 90% of the time or more (in the case were parents used an alternate brand during vacation, for example).
Using these criteria, 94 exclusively formula-fed infants and young children were selected into group #1. These included 13 children who received formula #2; 28 who received formula #5; 8 who received formula #3; 39 who received formula #4; 5 who received formula #1 and 1 who received formula #6. A sample of 52 exclusively breast-fed infants were also selected and matched to the over formula-fed group with regards to mean age, gestation duration, birth weight, male:female ratio, ethnicity ratio, maternal education, family size, and number of languages spoken in the home (in addition to English).
Each infant was scanned using the mcDESPOT (multicomponent Driven Equilibrium Single Pulse Observation of T1 and T2) white matter imaging technique Deoni et al. (Magn. Reson. Med. 2008, 60:1372-1387), which provides a quantitative measure of the myelin water fraction (MWF)—a measure of myelin content—at each point throughout the brain. All infants were scanned during natural (i.e. non-sedated) sleep using acoustically-muffled mcDESPOT imaging protocols. Total imaging times ranged from 19 minutes for the youngest toddlers to 24 minutes for the older 4 year-old children.

[2] = tested on: Neural Progenitor Cell (NPCs) from E14 mouse neocortex; test: Monolayer culture NPC proliferation assay; type: cell-based; settings: low dose (Dose 1: 10 nM); 3 days; control 262
Method: (§1) Media Compositions and Culture Methods 1) Neurobasal Complete Media Neurobasal media (LIFE TECHNOLOGIES CORP, #21103-049) 50× B27 supplement (LIFE TECHNOLOGIES CORP, #12587-010) 2 mM L-Glutamine (LIFE TECHNOLOGIES CORP, #25030-149) 1× Pen-Strep (LIFE TECHNOLOGIES CORP, #15140-122) 2) Neurobasal Media Complete with Growth Factors (GF) Above recipe with GF mix 1M Tris (MW 121.14, Fisher SCI BP152) Heparin (sigma H3149) BSA (Sigma A7030) DNAse, RNase, Protease free water (Fisher SCI AC327390010) EGF (GIBCO PHG0311) bFGF vial (GIBCO PHG0021) 3) Neurobasal Media No Choline (Life Technologies, Formulated Custom, No L-Glutamine, no phenol red) Note: complete and complete with GF made the same as above. Generation of Neural Progenitor Cell (NPCs) Libraries: dissociation of E14 mouse neocortex Reagents Needed: DPBS (1×)+10% Pen/Strep Neurobasal media/10% Pen/Strep/10× Hepes Procedure:
E14 pup brains were harvested and placed in ice cold DPBS (1×)+10% Pen/Strep, then they were dissected using a dissecting microscope. From each pup, one brain hemisphere was placed in 2 ml of Neurobasal media/10% P/S/10× Hepes and another brain hemisphere was placed in another tube. […]
EDU incorporation was measured using Click-iT® EdU Alexa Fluor® 555 Imaging Kit (Life technologies, #c10338). […]

[3] = tested on: Neural Progenitor Cell (NPCs) from E14 mouse neocortex; test: Neurosphere counts in 96-well plates; type: cell-based; settings: Low dose (Dose 1: 10 nM); grown for 2 days; control 103
Method: as §1
E14 pup brains were harvested and placed in ice cold DPBS (1×)+10% Pen/Strep, then they were dissected using a dissecting microscope. From each pup, one brain hemisphere was placed in 2 ml of Neurobasal media/10% P/S/10× Hepes and another brain hemisphere was placed in another tube.
The tissue from each tube was aseptically and manually dissociate into single cells, neurobasal complete medium was added and centrifuged at 130 G for 5 min. […]

| Compound | association of nutrient with myelination (myelin water fraction) over time in the brain [1] | neuronal proliferation, DAPI [2] | number of neurospheres, Average (Mean) [3] |
| --- | --- | --- | --- |
| CCCCC/C=C\C/C=C\C/C=C\C/C=C\CCCC(=O)O [AA, arachidonic acid] | association with myelination (myelin water fraction) was observed over time in the brain | – | – |
| [Ca+2] [calcium] | association with myelination (myelin water fraction) was observed over time in the brain | – | – |
| [Mg+2] [magnesium] | association with myelination (myelin water fraction) was observed over time in the brain | – | – |
| [P] [phosphorus] | association with myelination (myelin water fraction) was observed over time in the brain | – | – |
| [Zn] [zinc] | association with myelination (myelin water fraction) was observed over time in the brain | – | – |
| Sphingomyelin | association with myelination (myelin water fraction) was observed over time in the brain | 280 | 94 |
| iron | association with myelination (myelin water fraction) was observed over time in the brain | – | – |
| phosphatidylcholine | association with myelination (myelin water fraction) was observed over time in the brain | – | – |
| phosphatidylinositol | association with myelination (myelin water fraction) was observed over time in the brain | – | – |
| vitamin B12 | association with myelination (myelin water fraction) was observed over time in the brain | – | – |
